Columns and labels:
[1] = Individual serum elimination rate and half-life (linear regression per employee); conditions: individual estimate; for half-life: human, serum, oral, HL (half-life);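 as to HL (half-life): half-life in years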
Procedure: Serum PFAS concentrations were log-transformed. Time was calculated as the elapsed days between supply of clean bottled water and […] blood sampling. We assumed one compartment, first-order elimination kinetics. In this kinetic model, the body is considered as one homogeneous volume in which mixing is instantaneous and from which PFAS could be absorbed, transferred, and eliminated according to the rate of elimination that is proportional to the concentration of PFAS in the body. Two methods were used to estimate serum elimination rate constant (k) and half-life for each PFAS:
Method 2: For estimation of individual k, linear regression was used to derive the slope ( β ) of the logarithm of serum concentrations vs. time for each employee. The negative value of the slope ( −β ) for each individual was equivalent to the individual k, and individual serum elimination half-life was calculated as ln2/k for each PFAS. If β was positive (i.e., PFAS concentrations tended to increase over the five samplings), the half-life was not calculated.

[2] = PFAS levels in serum samples of airport employees (LC/MS/MS); conditions: for Serum level in the first samples, median (range) / Relative composition of PFAS in serum, molar concentration basis / Relative composition of PFAS in serum, weight basis / Serum concentration, molar basis / Serum concentration, weight basis: all 26 airport employees; for Relative composition of PFAS in serum, molar concentration basis / Relative composition of PFAS in serum, weight basis: first serum samples; for Serum concentration, molar basis / Serum concentration, weight basis: median of first serum samples
How it was run: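 LC/MS/MS quantification (BEH C18, 5 mM ammonium acetate water:methanol to methanol gradient) after protein precipitation of 25 μL serum with isotopically labeled internal standards, FBS-matrix calibration. Samples stored at −80°C, collected at monthly intervals from September 2018 and run together in a single batch.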

[3] = 1st sampling (September 2018), count 17
[4] = 2nd sampling (October 2018), count 17
[5] = 3rd sampling (November, 2018), count 17
[6] = 4th sampling (December 2018), count 16
[7] = 5th sampling (January 2019), count 16
[8] = employees participated in first blood sampling and repeated blood and urine sampling, N=17
[9] = employees participated in first blood sampling only, N=9, 11-14 d after end of exposure

O=C(O)C(F)(F)C(F)(F)C(F)(F)C(F)(F)C(F)(F)C(F)(F)F [PFHpA, perfluoroheptanoic acid]
half-life ([1]; subject 1, 5 samples): 110 days
half-life ([1]; subject 2, 5 samples): 73 days
half-life ([1]; subject 3, 5 samples): 146 days
half-life ([1]; subject 4, 5 samples): 73 days
half-life ([1]; subject 5, 5 samples): 183 days
half-life ([1]; subject 6, 4 samples): 73 days
half-life ([1]; subject 7, 5 samples): 36.5 days
half-life ([1]; subject 8, 5 samples): 36.5 days
half-life ([1]; subject 9, 5 samples): 36.5 days
half-life ([1]; subject 10, 5 samples): 110 days
half-life ([1]; subject 11, 5 samples): 110 days
half-life ([1]; subject 12, 5 samples): 36.5 days
half-life ([1]; subject 13, 5 samples): 36.5 days
half-life ([1]; subject 14, 4 samples): 36.5 days
half-life ([1]; subject 15, 5 samples): 73 days
half-life ([1]; subject 16, 5 samples): 256 days
half-life ([1]; subject 17, 5 samples): 36.5 days
Elimination rate ([1]; subject 1, 5 samples): 2.1 yearly
Elimination rate ([1]; subject 2, 5 samples): 3.7 yearly
Elimination rate ([1]; subject 3, 5 samples): 1.7 yearly
Elimination rate ([1]; subject 4, 5 samples): 3.2 yearly
Elimination rate ([1]; subject 5, 5 samples): 1.3 yearly
Elimination rate ([1]; subject 6, 4 samples): 4.1 yearly
Elimination rate ([1]; subject 7, 5 samples): 4.6 yearly
Elimination rate ([1]; subject 8, 5 samples): 5.4 yearly
Elimination rate ([1]; subject 9, 5 samples): 7.8 yearly
Elimination rate ([1]; subject 10, 5 samples): 2.2 yearly
Elimination rate ([1]; subject 11, 5 samples): 2.6 yearly
Elimination rate ([1]; subject 12, 5 samples): 6.7 yearly
Elimination rate ([1]; subject 13, 5 samples): 5.4 yearly
Elimination rate ([1]; subject 14, 4 samples): 6.6 yearly
Elimination rate ([1]; subject 15, 5 samples): 3.9 yearly
Elimination rate ([1]; subject 16, 5 samples): 0.9 yearly
Elimination rate ([1]; subject 17, 5 samples): 5.2 yearly
Serum PFAS level, 25 percentile [2, 3]: 0.45
Serum PFAS level, 75 percentile [2, 3]: 1.1
Serum PFAS level, Max [2, 3]: 2.2
Serum PFAS level, Median [2, 3]: 0.53
Serum PFAS level, Min [2, 3]: 0.20
Serum PFAS level, 25 percentile [2, 4]: 0.18
Serum PFAS level, 75 percentile [2, 4]: 0.83
Serum PFAS level, Max [2, 4]: 2.0
Serum PFAS level, Median [2, 4]: 0.33
Serum PFAS level, Min [2, 4]: 0.07
Serum PFAS level, 25 percentile [2, 5]: 0.09
Serum PFAS level, 75 percentile [2, 5]: 0.75
Serum PFAS level, Max [2, 5]: 2.0
Serum PFAS level, Median [2, 5]: 0.27
Serum PFAS level, Min [2, 5]: 0.08
Serum PFAS level, 25 percentile [2, 6]: 0.09
Serum PFAS level, 75 percentile [2, 6]: 0.72
Serum PFAS level, Max [2, 6]: 1.8
Serum PFAS level, Median [2, 6]: 0.15
Serum PFAS level, Min [2, 6]: 0.05
Serum PFAS level, 25 percentile [2, 7]: < LOD
Serum PFAS level, 75 percentile [2, 7]: 0.50
Serum PFAS level, Max [2, 7]: 1.4
Serum PFAS level, Median [2, 7]: 0.10
Serum PFAS level, Min [2, 7]: < LOD
Serum level in the first samples, median (range) [2]: 0.46 (0.07–2.2) ng/mL
PFAS in first serum sample, median (range) [2, 8]: 0.53 (0.20–2.2) ng/mL
PFAS in first serum sample, median (range) [2, 9]: 0.17 (0.07–1.3) ng/mL
Initial serum PFAS level, max ([2]; females (N=7)): 2.2 ng/mL
Initial serum PFAS level, median ([2]; females (N=7)): 0.46 ng/mL
Initial serum PFAS level, min ([2]; females (N=7)): 0.08 ng/mL
Relative composition of PFAS in serum, molar concentration basis [2]: 0.5%
Relative composition of PFAS in serum, weight basis [2]: 0.4%
Initial serum PFAS level, Max ([2]; males (N=19)): 2.0 ng/mL
Initial serum PFAS level, Min ([2]; males (N=19)): 0.07 ng/mL
Initial serum PFAS level, median ([2]; males (N=19)): 0.45 ng/mL
Serum concentration, molar basis [2]: 0.0013
Serum concentration, weight basis [2]: 0.46

O=S(=O)(O)C(F)(F)C(F)(F)C(F)(F)C(F)(F)C(F)(F)C(F)(F)C(F)(F)F [PFHpS, perfluoroheptane sulfonic acid]
Elimination rate ([1]; subject 1, 5 samples): 0.5 yearly
HL (half-life) ([1]; subject 1, 5 samples): 1.3 year
Elimination rate ([1]; subject 2, 5 samples): 0.2 yearly
HL (half-life) ([1]; subject 2, 5 samples): 3.4 year
Elimination rate ([1]; subject 3, 5 samples): 0.2 yearly
HL (half-life) ([1]; subject 3, 5 samples): 3.0 year
Elimination rate ([1]; subject 4, 5 samples): 0.001 yearly
Elimination rate ([1]; subject 5, 5 samples): −0.3 yearly
Elimination rate ([1]; subject 6, 4 samples): 0.1 yearly
HL (half-life) ([1]; subject 6, 4 samples): 6.1 year
Elimination rate ([1]; subject 7, 5 samples): −0.04 yearly
Elimination rate ([1]; subject 8, 5 samples): −0.6 yearly
Elimination rate ([1]; subject 9, 5 samples): 0.05 yearly
HL (half-life) ([1]; subject 9, 5 samples): 15 year
Elimination rate ([1]; subject 10, 5 samples): 0.4 yearly
HL (half-life) ([1]; subject 10, 5 samples): 1.8 year
Elimination rate ([1]; subject 11, 5 samples): 1.7 yearly
HL (half-life) ([1]; subject 11, 5 samples): 0.4 year
Elimination rate ([1]; subject 12, 5 samples): 0.6 yearly
HL (half-life) ([1]; subject 12, 5 samples): 1.1 year
Elimination rate ([1]; subject 13, 5 samples): −0.2 yearly
Elimination rate ([1]; subject 14, 4 samples): 1.0 yearly
HL (half-life) ([1]; subject 14, 4 samples): 0.7 year
Elimination rate ([1]; subject 15, 5 samples): 1.6 yearly
HL (half-life) ([1]; subject 15, 5 samples): 0.4 year
Elimination rate ([1]; subject 16, 5 samples): 0.1 yearly
HL (half-life) ([1]; subject 16, 5 samples): 12 year
Elimination rate ([1]; subject 17, 5 samples): 1.7 yearly
HL (half-life) ([1]; subject 17, 5 samples): 0.4 year
Serum PFAS level, 25 percentile [2, 3]: 0.96
Serum PFAS level, 75 percentile [2, 3]: 2.5
Serum PFAS level, Max [2, 3]: 6.2
Serum PFAS level, Median [2, 3]: 1.6
Serum PFAS level, Min [2, 3]: 0.49
Serum PFAS level, 25 percentile [2, 4]: 0.95
Serum PFAS level, 75 percentile [2, 4]: 2.1
Serum PFAS level, Max [2, 4]: 6.1
Serum PFAS level, Median [2, 4]: 1.5
Serum PFAS level, Min [2, 4]: 0.45
Serum PFAS level, 25 percentile [2, 5]: 0.94
Serum PFAS level, 75 percentile [2, 5]: 1.9
Serum PFAS level, Max [2, 5]: 6.3
Serum PFAS level, Median [2, 5]: 1.4
Serum PFAS level, Min [2, 5]: 0.47
Serum PFAS level, 25 percentile [2, 6]: 0.93
Serum PFAS level, 75 percentile [2, 6]: 2.1
Serum PFAS level, Max [2, 6]: 5.9
Serum PFAS level, Median [2, 6]: 1.5
Serum PFAS level, Min [2, 6]: 0.35
Serum PFAS level, 25 percentile [2, 7]: 1.1
Serum PFAS level, 75 percentile [2, 7]: 2.2
Serum PFAS level, Max [2, 7]: 6.2
Serum PFAS level, Median [2, 7]: 1.5
Serum PFAS level, Min [2, 7]: 0.45
Serum level in the first samples, median (range) [2]: 1.3 (0.28–6.2) ng/mL
PFAS in first serum sample, median (range) [2, 8]: 1.6 (0.49–6.2) ng/mL
PFAS in first serum sample, median (range) [2, 9]: 0.97 (0.28–1.9) ng/mL
Initial serum PFAS level, max ([2]; females (N=7)): 2.2 ng/mL
Initial serum PFAS level, median ([2]; females (N=7)): 1.1 ng/mL
Initial serum PFAS level, min ([2]; females (N=7)): 0.49 ng/mL
Relative composition of PFAS in serum, molar concentration basis [2]: 1.1%
Relative composition of PFAS in serum, weight basis [2]: 1.2%
Initial serum PFAS level, Max ([2]; males (N=19)): 6.2 ng/mL
Initial serum PFAS level, Min ([2]; males (N=19)): 0.28 ng/mL
Initial serum PFAS level, median ([2]; males (N=19)): 1.4 ng/mL
Serum concentration, molar basis [2]: 0.0029
Serum concentration, weight basis [2]: 1.3
